Paper PMC11521309, “A novel 4-aminoquinoline chemotype with multistage antimalarial activity and lack of cross-resistance with PfCRT and PfMDR1 mutants” (PLOS Pathogens, 2024)
Read-outs that look alike come from different tables or passages of the source.

Legend:
HepG2 cells = assay: MTT cytotoxicity assay, 72 h; assay type: cell-based, Human
Description: (§1) Human hepatoma (HepG2) and fibroblast-like monkey kidney cells (COS-7) were cultured in Dulbecco’s Modified Eagle Medium supplemented with 10% heat-inactivated fetal bovine serum and gentamycin (40 mg/L) at 37°C in a 5% CO2 atmosphere. Cytotoxicity of test compounds was measured by metabolic reduction of mitochondrial enzymes using the MTT assay (3-[4,5-dimethyl-thiazol-2-yl]-2,5-diphenyltetrazolium chloride). Cells were seeded at 10^5 cells/well in 96-well plates and incubated for 72 hours in the presence of a 2-fold 12-point serial dilution of drugs along with drug-free controls. After adding 15 μL of MTT (5 mg/mL) to the wells, plates were centrifuged at 317g for 5 minutes and the pellet was resuspended in isopropanol. Absorbance was measured at 570 nm (CLARIOStar, Labtech BMG). Cell viability was determined by formazan production, and was expressed as a percentage of untreated control wells.

[1] = MTT cytotoxicity assay, 72 h; assay type: cell-based, Human; settings: human, MTT, 72 h, N = 3
Description: as §1

[2] = test system: P. falciparum Dd2 ABS parasites; assay: ABS parasite survival assay, 72 h, flow cytometry; assay type: cell-based; settings: Plasmodium falciparum, DD2, ABS parasites, N = 3; read-out: IC50 Dd2
Description: (§2) P. falciparum ABS parasites were cultured at 3% hematocrit in human O^+ RBCs in RPMI-1640 media supplemented with 25 mM HEPES, 50 mg/L hypoxanthine, 2 mM L-glutamine, 0.21% sodium bicarbonate, 0.5% (w/v) AlbuMAXII (Invitrogen) and 10 μg/mL gentamycin. Culture flasks were kept in modular incubator chambers (Billups-Rothenberg) in a 5% O2, 5% CO2, and 90% N2 atmosphere at 37°C. Synchronized ring-stage parasites were obtained by two consecutive rounds of treatment with 5% D-sorbitol in 48-hour intervals. […] This was done by exposing cultures at 1% hematocrit and 0.3% parasitemia in 96-well plates in the presence of drugs in a two-fold 10 or 12-point serial dilution in duplicate along with drug-free controls. After a 72-hour incubation, parasite survival was assessed by flow cytometry on an iQue flow cytometer (Sartorius) using SYBR Green and MitoTracker Deep Red FM (Life Technologies) as nuclear stain and vital dye, respectively. Parasite survival was determined as a percentage relative to drug-free control. IC50 values were interpolated from log concentration versus response curves in Prism 9 (GraphPad Prism Software Inc.).

[3] = test system: P. falciparum 3D7 ABS parasites; assay: ABS parasite survival assay, 72 h, flow cytometry; assay type: cell-based; settings: Plasmodium falciparum, 3D7, ABS parasites, N = 3; read-out: IC50 3D7
Description: as §2

COS-7 cells = assay: MTT cytotoxicity assay, 72 h; assay type: cell-based, monkey
Description: as §1

[4] = MTT cytotoxicity assay, 72 h; assay type: cell-based, monkey; settings: monkey, MTT, 72 h, N = 3
Description: as §1

[5] = test system: P. berghei PbGFP-Luccon liver stage; assay: In vitro inhibition of liver stage infection of Huh-7 cells, bioluminescence; assay type: cell-based, Plasmodium berghei; settings: DMSO = 100
Description: (§3) In vitro inhibition of Plasmodium liver stage infection was assessed using bioluminescence data from Huh-7 cells infected with a firefly-luciferase-expressing P. berghei line, PbGFP-Luccon, in the presence of various compound concentrations. […] One day before drug treatment and infection, 10^4 Huh-7 cells/well were seeded in 96-well plates. The medium was then replaced by an infection medium (culture medium supplemented with 50 μg/mL gentamycin and 0.8 μg/mL amphotericin B) containing desired concentrations of test compounds. Fresh sporozoites recovered from salivary glands of infected female Anopheles stephensi mosquitoes were added to seeded Huh-7 cells at a 1:1 proportion, followed by centrifugation at 1700g for 5 minutes and incubation for 46 hours at 37°C under 5% CO2. Compound toxicity against Huh-7 cells was assessed by measuring […] using the Alamar Blue assay (Invitrogen). IC50 values were calculated using nonlinear regression analysis (GraphPad Prism version 9).

Huh-7 cells = assay: Host cell confluency, Alamar Blue; assay type: cell-based, human; settings: DMSO = 100
Description: as §3

| Compound | SI (CC50 HepG2 / IC50 3D7) (HepG2 cells) | CC50 at 72 h ([1]; read-out: CC50 HepG2) | IC50 [2] | IC50 [3] | SI (CC50 COS-7 / IC50 3D7) (COS-7 cells) | CC50 at 72 h ([4]; read-out: CC50 COS-7) | CC50 at 72 h ([1]; HepG2 cells) | CC50 at 72 h ([4]; COS-7 cells) | Infection, Mean ([5]; 1 uM) | Infection, Mean ([5]; 10 uM) | Confluency, Mean (Huh-7 cells; 1 uM) | Confluency, Mean (Huh-7 cells; 10 uM) |
| --- | --- | --- | --- | --- | --- | --- | --- | --- | --- | --- | --- | --- |
| COc1cc(Nc2ccnc3ccc(Br)cc23)cc(OC)c1OC [LDT-619] | 0.1 | 0.3 ± 0.04 µM | > 5 µM | > 5 µM | 0.7 | 3.3 ± 0.3 µM |  |  |  |  |  |  |
| COc1ccc(Nc2ccnc3ccccc23)cc1 [LDT-627] | 5.2 |  | 2 ± 0.2 µM | 2.5 ± 0.8 µM | 22.1 |  | 12.7 ± 6.4 µM | 54.5 ± 16.7 µM |  |  |  |  |
| COc1ccc(Nc2ccnc3ccccc23)cc1OC [LDT-618] | 16.8 |  | 1.9 ± 0.2 µM | 1.8 ± 0.1 µM | > 56.5 |  | 29.8 ± 9.7 µM | > 100 µM |  |  |  |  |
| COc1cc(NC(C)CCCN)c2ncccc2c1 (stereo not shown) [Primaquine] |  |  |  |  |  |  |  |  | 136.53 | 51.51 | 110.92 | 113.36 |
| COc1ccc2c(Nc3ccccc3)ccnc2c1 [LDT-622] | 13.7 |  | 0.4 ± 0.06 µM | 0.2 ± 0.02 µM | 17.5 |  | 3 ± 0.9 µM | 3.8 ± 0.7 µM |  |  |  |  |
| COc1cccc(Nc2ccnc3ccccc23)c1 [LDT-617] | 23.1 |  | 1.9 ± 0.2 µM | 1.8 ± 0.1 µM | 28.9 |  | 40.8 ± 12.2 µM | 51.2 ± 6.6 µM |  |  |  |  |
